Converted amounts (≈) assume the structure as drawn.
Columns and labels:
Assay in all cases: Antimicrobial activity, MIC (standard method of the Japan Chemotherapeutic Society)
Type in all cases: cell-based
S. epidermidis, 56500 = system: S. epidermidis, 56500
Text: (§1) The present invention will further be illustrated in greater detail by way of Examples and Reference Examples, but the present invention should not be construed as being limited thereto. The antimicrobial activity of the compounds prepared was examined in accordance with the standard method specified by the Japan Chemotherapeutic Society, and the results obtained were expressed in terms of minimum inhibitory concentration (MIC; μg/ml).

S. flexneli, 2A 5503 = system: S. flexneli, 2A 5503
Text: as §1

Pr. vulgaris, 08601 = system: Pr. vulgaris, 08601
Text: as §1

S. aureus, 870307 = system: S. aureus, 870307
Text: as §1

Ser. marcescens, 10100 = system: Ser. marcescens, 10100
Text: as §1

Pr. mirabilis, IFO-3849 = system: Pr. mirabilis, IFO-3849
Text: as §1

[1] = system: Str. faecalis, ATCC-19433
Text: as §1

S. aureaus, 209P = system: S. aureaus, 209P
Text: as §1

[2] = system: Ps. maltophilia, IID-1275
Text: as §1

E. coli, NIHJ = system: E. coli, NIHJ
Text: as §1

Ps. aeruginosa, 32104 = system: Ps. aeruginosa, 32104
Text: as §1

Ps. aeruginosa, 32121 = system: Ps. aeruginosa, 32121
Text: as §1

Str. pyogenes, G-36 = system: Str. pyogenes, G-36
Text: as §1

## Cc1c(N2CCC([C@@H]3C[C@@H]3N)C2)c(F)c(N)c2c(=O)c(C(=O)O)cn([C@@H]3C[C@@H]3F)c12 (single isomer, unassigned; isomer b) [Example 3]
S. epidermidis, 56500
  MIC: 0.006 µg/mL (≈ 0.0143 µM)
S. flexneli, 2A 5503
  MIC: ≦0.003 μg/ml
Pr. vulgaris, 08601
  MIC: 0.05 µg/mL (≈ 0.119 µM)
S. aureus, 870307
  MIC: 0.025 µg/mL (≈ 0.0597 µM)
Ser. marcescens, 10100
  MIC: 0.10 µg/mL (≈ 0.239 µM)
Pr. mirabilis, IFO-3849
  MIC: 0.05 µg/mL (≈ 0.119 µM)
[1]
  MIC: 0.025 µg/mL (≈ 0.0597 µM)
S. aureaus, 209P
  MIC: ≦0.003 μg/ml
[2]
  MIC: 0.05 µg/mL (≈ 0.119 µM)
E. coli, NIHJ
  MIC: ≦0.003 μg/ml
Ps. aeruginosa, 32104
  MIC: 0.20 µg/mL (≈ 0.478 µM)
Ps. aeruginosa, 32121
  MIC: 0.10 µg/mL (≈ 0.239 µM)
Str. pyogenes, G-36
  MIC: 0.006 µg/mL (≈ 0.0143 µM)
